Laboratory results as given in US9486506B2 (Novo Nordisk A/S, priority 2011, dated 2016).
Numbered stars: 1 amine (or outer) side, 2 acyl side, 3 side chain; on linkers, the order of the positions; unused ones are H or OH. Side chains are listed from the residue outwards. Peptide text beside a SMILES is read from it. * marks the point of attachment. C18 diacid = O=C(O)CCCCCCCCCCCCCCCCC(=O)*; γGlu = O=C(O)[C@H](CCC(=O)[*:2])N[*:1]; AEEA = NCCOCCOCC(=O)O

How the values were obtained:
glucagon receptor = target: T1, glucagon receptor (Homo sapiens, UniProt P47871); experiment: Assay (I) Glucagon activity (cAMP biosensor, FLIPR); assay type: cell-based
T1 construct: expressed in transfected cells

[1] = Assay (X) Chemical stability assessment by RP-UPLC; assay type: physicochemical; details: pH 8.15, 14 days at 37° C. vs 5° C., 333 μM

T1 sequence (P47871 26-477): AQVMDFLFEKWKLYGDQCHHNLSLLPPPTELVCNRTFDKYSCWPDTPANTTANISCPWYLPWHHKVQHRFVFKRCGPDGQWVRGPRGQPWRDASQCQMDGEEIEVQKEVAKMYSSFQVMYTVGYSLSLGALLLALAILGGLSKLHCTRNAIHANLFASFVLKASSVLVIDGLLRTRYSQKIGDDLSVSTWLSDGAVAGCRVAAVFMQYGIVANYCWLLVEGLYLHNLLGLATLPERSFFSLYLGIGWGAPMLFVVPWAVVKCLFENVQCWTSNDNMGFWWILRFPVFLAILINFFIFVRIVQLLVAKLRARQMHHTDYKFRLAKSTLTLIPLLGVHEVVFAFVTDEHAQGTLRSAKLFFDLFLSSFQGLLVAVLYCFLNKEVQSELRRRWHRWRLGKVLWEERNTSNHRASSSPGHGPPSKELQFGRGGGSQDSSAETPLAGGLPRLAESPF

Row | Compound | EC50 (glucagon receptor) | Chemical stability [Purity loss/14 days 37 C.] [1]
1 | CC(C)C[C@H](NC(=O)[C@H](Cc1ccc(O)cc1)NC(=O)[C@H](CCCNC(=N)N)NC(=O)[C@H](CO)NC(=O)[C@H](Cc1ccc(O)cc1)NC(=O)[C@H](CC(=O)O)NC(=O)[C@H](CO)NC(=O)[C@@H](NC(=O)[C@H](Cc1ccccc1)NC(=O)[C@@H](NC(=O)CNC(=O)[C@H](CCC(N)=O)NC(=O)[C@H](CO)NC(=O)[C@@H](N)Cc1c[nH]cn1)[C@@H](C)O)[C@@H](C)O)C(=O)N[C@@H](CCC(=O)O)C(=O)N[C@@H](CO)C(=O)N[C@@H](CCCNC(=N)N)C(=O)N[C@@H](CCCNC(=N)N)C(=O)N[C@@H](C)C(=O)N[C@@H](CCC(N)=O)C(=O)N[C@@H](CCC(=O)O)C(=O)N[C@@H](Cc1ccccc1)C(=O)N[C@H](C(=O)N[C@@H](CCCCNC(=O)CC[C@H](NC(=O)CC[C@H](NC(=O)COCCOCCNC(=O)COCCOCCNC(=O)CC[C@H](NC(=O)CCCCCCCCCCCCCCCCC(=O)O)C(=O)O)C(=O)O)C(=O)O)C(=O)N[C@@H](Cc1c[nH]c2ccccc12)C(=O)N[C@@H](CC(C)C)C(=O)N[C@@H](CC(C)C)C(=O)N[C@@H](CO)C(=O)N[C@H](C(=O)O)[C@@H](C)O)C(C)C [Example 52, N^ε24-[(4S)-4-carboxy-4-[[(4S)-4-carboxy-4-[[2-[2-[2-[[2-[2-[2-[[(4S)-4-carboxy-4-(17-carboxyheptadecanoylamino)butanoyl]amino]ethoxy]ethoxy]acetyl]amino]ethoxy]ethoxy]acetyl]amino]butanoyl]amino]butanoyl]-[Arg12,Glu15,Glu21,Lys24,Leu27,Ser28]-Glucagon] (H-HSQGTFTSDYSRYLESRRAQEFVK([γGlu-γGlu-AEEA-AEEA-γGlu-C18 diacid])WLLST-OH) | 0.289 nM | 6.3%
2 | CC(C)C[C@H](NC(=O)[C@H](Cc1ccc(O)cc1)NC(=O)[C@H](CCCCN)NC(=O)[C@H](CO)NC(=O)[C@H](Cc1ccc(O)cc1)NC(=O)[C@H](CC(=O)O)NC(=O)[C@H](CO)NC(=O)[C@@H](NC(=O)[C@H](Cc1ccccc1)NC(=O)[C@@H](NC(=O)CNC(=O)[C@H](CCC(N)=O)NC(=O)[C@H](CO)NC(=O)[C@@H](N)Cc1c[nH]cn1)[C@@H](C)O)[C@@H](C)O)C(=O)N[C@@H](CC(=O)O)C(=O)N[C@@H](C)C(=O)N[C@@H](CCCNC(=N)N)C(=O)N[C@@H](CCCNC(=N)N)C(=O)N[C@@H](C)C(=O)N[C@@H](CCC(N)=O)C(=O)N[C@@H](CC(=O)O)C(=O)N[C@@H](Cc1ccccc1)C(=O)N[C@H](C(=O)N[C@@H](CCCCNC(=O)CC[C@H](NC(=O)CC[C@H](NC(=O)COCCOCCNC(=O)COCCOCCNC(=O)CC[C@H](NC(=O)CCCCCCCCCCCCCCCCC(=O)O)C(=O)O)C(=O)O)C(=O)O)C(=O)N[C@@H](Cc1c[nH]c2ccccc12)C(=O)N[C@@H](CC(C)C)C(=O)N[C@@H](CC(C)C)C(=O)N[C@@H](CO)C(=O)N[C@H](C(=O)O)[C@@H](C)O)C(C)C [Example 43, N^ε24-[(4S)-4-carboxy-4-[[(4S)-4-carboxy-4-[[2-[2-[2-[[2-[2-[2-[[(4S)-4-carboxy-4-(17-carboxyheptadecanoylamino)butanoyl]amino]ethoxy]ethoxy]acetyl]amino]ethoxy]ethoxy]acetyl]amino]butanoyl]amino]butanoyl]-[Ala16,Lys24,Leu27,Ser28]-Glucagon] | 0.049 nM | 7.6%
